# Experimental data as given in patent publication US8097624B2, “Cycloalkyl derivatives of 3-hydroxy-4-pyridinones” (Apotex Inc., priority 2006, dated 2012).
# Several values for one entry are separate records, joined by “and”; a condition that tells them apart may be missing. Equal entries are not always repeated.
# Tests used:
# Iron Overloaded Rats = test: Second rat study: urinary and fecal iron excretion at 28, 113 and 450 μmoles/kg; format: in vivo; conditions: n=6/group, mean ± 1SD
# Experimental: A second study was conducted to confirm the efficacy results of Apo6619 and Apo6617 observed in the above study and to further characterize the efficacy of these compounds at doses lower than 450 μmol/kg. The study was conducted in two separate groups of iron overloaded rats. The method of iron overloading, preparation of dosing solutions and assessment of efficacy in these rats was similar to that described in the above study.
# The first group of rats (n=6) were treated with Apo6619 consecutively at doses of 28, 113 and 450 μmoles/kg. Similarly, the second group of rats (also n=6) was treated with Apo6617 at these same three doses. Similar to the previous study, both Apo6619 and Apo6617 produced an increase in urinary iron excretion at the 450 μmoles/kg dose (Apo6619: 11±3 at baseline to 335±76 1-day post-Apo6619, p=0.0001; Apo6617: 14±4 at baseline to 183±20 1-day post-Apo6617, p=0.0003). […] At 28 μmoles/kg, only Apo6617 produced an increase in iron excretion (p=0.01) above baseline. However, the magnitude of the increased excretion was small for both Apo6619 and Apo6617.
# [1] = Distribution coefficient determination (D7.4), 1-octanol / MOPS buffer; format: physicochemical; conditions: 1-octanol / MOPS buffer pH 7.4
# Experimental: MOPS buffer (50 mM, pH=7.4) and 1-octanol were used as the aqueous phase and the organic phase, respectively, for distribution coefficient determinations. The MOPS buffer and 1-octanol were pre-saturated with each other before use.
# In a typical experiment, an organic stock solution of Apo6618 (1-cyclopropyl-3-hydroxy-6-methyl-4-oxo-1,4-dihydro-pyridine-2-carboxylic acid cyclopropylamide) was prepared by weighing out 0.50 mg of the compound into a 10-mL volumetric flask and bringing to volume with 1-octanol. The solution was then sonicated for 60 minutes so that the sample could dissolve completely. The concentration of the stock solution was calculated as C^0org=2.0×10^−4 M. The organic standard solution of Apo6618 with 2.0×10^−5 M was prepared in a 10-mL volumetric flask by 10 times dilution of the stock solution with 1-octanol. The sample solution was prepared in a 10-mL volumetric flask. The stock sample solution (3 ml) was pipetted into the flask followed by the addition of MOPS buffer (3 ml). The standard and sample solutions were then vortexed for 2 hours. After vortexing, the solutions were transferred to test tubes and centrifuged at 4000 rpm for 15 minutes. UV-Vis spectra were recorded for the standard solution and the organic (top) phase of the sample solution at 22° C. The distribution coefficient, D7.4, was calculated using the following equation: D7.4=[Aorg/(C^0orgεorg−Aorg)]×(Vaqu/Vorg)
# Where εorg=the molar extinction coefficient of the peak wavelength (λmax) obtained from the UV-Vis spectrum of the organic standard solution; Aorg=absorbance of the organic phase in the sample solution at the same λmax; C^0org=the concentration of the stock solution; Vaqu=the volume of MOPS buffer in the sample solution; Vorg=the volume of the stock solution in the sample solution.
# [2] = pKa determination by potentiometric or spectrophotometric titration; format: physicochemical; conditions: titration in 0.1 M NaCl at 22° C.
# Experimental: The pKa values of ligands were determined by potentiometric titration when a ligand concentration greater than 1×10^−2 M in water could be prepared. In a typical experiment, the sample solution (2.67×10^−2 M) was prepared by the following method: Apo6619 (92.6 mg) was weighed into a 25-ml beaker, followed by the addition of 0.1 M NaCl (15 ml). The mixture was sonicated for 10 minutes to give a clear colorless solution. Nitrogen gas was then allowed to bubble through the solution. 1.000 N Hydrochloric acid (624 μl, 1.5 equivalent) was added to the solution to give pH 1.88. The solution was allowed to equilibrate at 22° C. for 60 minutes.
# The solution was then titrated against 1.000 N NaOH at 22° C. to reach pH 11.8. For each addition of base, the solution was allowed to equilibrate until a constant pH reading was reached. The volume of the base added and the pH reading were recorded for each measurement. 137 measurements were taken to finish the experiment.
# The data set of pH vs. base volume was analyzed using Hyperquad 2000 (Version 2.1, Peter Gans, University of Leeds).
# The pKa values of ligands can be determined by spectrophotometric titration when both the conjugated acid and base absorb in the UV-Visible region. In a typical experiment, the sample solution was prepared by the following method: Apo6617 (0.792 mg) was weighed into an 80-ml beaker, followed by the addition of 0.1 M NaCl (50 ml). The mixture was sonicated for 5 minutes to give a clear colorless solution. Nitrogen gas was allowed to bubble through the solution. 1.000 N NaOH (50 μl) was added to give pH 10.9. The solution was allowed to equilibrate at 22° C. for 1 hour. A sipper system was used for the circulation of the sample solution between the beaker and the flow cell.
# The sample solution was titrated against standard hydrochloric acid solutions at 22° C. to reach pH 1.40. After each addition of acid the solution was allowed to equilibrate until a constant pH reading was reached. The pH and the UV-Vis spectrum were recorded for each measurement. The peak wavelengths of the deprotonated species (L^−), the neutral species (LH), and the protonated species (LH2^+) were 314 nm, 281 nm, and 249 nm, respectively. In the region of pH>6, after each addition of acid there was a slight decrease in the absorbance at 314 nm and a slight increase at 281 nm in each spectrum, whereas in the region of pH<5, after each addition of acid there was a slight decrease in the absorbance at 281 nm and a slight increase at 249 nm in each spectrum. The solution was titrated until there was no obvious change in the spectra after several subsequent additions of acid. 116 measurements were taken to finish the experiment.
# The resulting data set was then analyzed using pHAB (Peter Gans, University of Leeds).
melting point,D7.4 [1],"pKas (higher value, phenolic C3 OH) [2]","pKas (lower value, LH2+) [2]",Structure (SMILES),"Iron excretion, Urine (1 day post-chelator) (Iron Overloaded Rats; 28 μmol/kg)","Iron excretion, Feces (3 days) (Iron Overloaded Rats; 113 μmol/kg)","Iron excretion, Urine (1 day post-chelator) (Iron Overloaded Rats; 113 μmol/kg)","Iron excretion, Feces (3 days) (Iron Overloaded Rats; 450 μmol/kg)","Iron excretion, Urine (1 day post-chelator) (Iron Overloaded Rats; 450 μmol/kg)"
258 to 260 °C (dec.),0.109,–,–,"CNC(=O)c1c(O)c(=O)cc(C)n1C1CC1 [Apo6619, 1-Cyclopropyl-3-hydroxy-6-methyl-4-oxo-1,4-dihydro-pyridine-2-carboxylic Acid Methylamide]",14 ± 4 µg/day/kg,3033 ± 1076 µg/day/kg,51 ± 15*τ μg/day/kg,3831 ± 790 µg/day/kg,335±76 μg/day/kg and 335 ± 76*τ μg/day/kg
–,–,9.64,3.56,"Cc1c(O)c(=O)ccn1C [deferiprone, 1,2-dimethyl-3-hydroxy-4-pyridinone, reference compound]",–,–,–,–,–
260 to 262 °C,0.099,8.6 and 8.5,2.5 and 2.4,"Cc1cc(=O)c(O)c(C(=O)NC2CC2)n1C [Apo6617, 3-Hydroxy-1,6-dimethyl-4-oxo-1,4-dihydro-pyridine-2-carboxylic Acid Cyclopropylamide]",24 ± 6 µg/day/kg,2411 ± 335 µg/day/kg,28 ± 8 µg/day/kg,3228 ± 437 µg/day/kg,183 ± 20 µg/day/kg
